Results reported in article PMC6345968, “Structural basis for species-selective targeting of Hsp90 in a pathogenic fungus” (Nature Communications, 2019).

Assays:
[1] = test system: Raw264.7 macrophages; assay: Phagocytosis of GFP C. albicans by macrophages, flow cytometry; format: cell-based, mouse; conditions: 2 h pre-treatment
Method: Compromise of host immune function and other target-related toxicities preclude the use of non-species-selective Hsp90 inhibitors in the treatment of fungal infections. Host defense against invasive infection relies heavily on the ingestion and destruction of C. albicans by innate immune cells, such as macrophages. […] After an additional two hours, phagocytosis of the fluorescently labeled fungi was measured by flow cytometry. […] This Hsp90-dependent morphogenetic program has an important role in the organism’s virulence and interactions with host immune effectors such as macrophages.
The ingestion of GFP-marked C. albicans CaCi-2 (CaLC867, Table S4) by mouse macrophages was monitored using flow cytometry. Raw264.7 macrophage cultures were pre-treated with various concentrations of Hsp90 inhibitors for 2 h at 37 °C and then infected with fungus at a multiplicity of infection of ~2 for an additional 2 h. Wells were harvested by trypsinization and resultant cell suspensions incubated with Guava ViaCount reagent per manufacturer’s recommendation (Millipore Sigma, Cat #4000-0040). Red fluorescent signal was used to identify macrophages while green fluorescent signal identified the fungus. Dual positive (red and green) events with appropriate forward- and side-scatter parameters were quantitated as representative of ingestion of fungus by a macrophage. […]

[2] = test system: C. albicans CaCi-2; assay: Checkerboard with fluconazole, Bliss independence; format: cell-based, Candida albicans; conditions: 48 hours
Method: Each colored box represents the mean of duplicate determinations. […] Error bars, SD.
(§1) Antifungal tolerance and resistance were determined in flat bottom, 96-well microtiter plates using a modified broth microdilution protocol as described[8],[10]. All Hsp90 inhibitors were formulated in dimethyl sulfoxide (DMSO, Sigma Aldrich Co.); fluconazole was dissolved in sterile ddH2O. Each strain was tested in duplicate on at least two occasions. […] To test for fungicidal activity, cultures from MIC plates were spotted on YPD agar plates using a spotter (Frogger, V&P Scientific, Inc). Plates were photographed after 48 h of incubations at 30 °C.

[3] = test system: 293T reporter cells
[4] = test system: S. cerevisiae expressing human Hsp90α; format: cell-based, Saccharomyces cerevisiae; conditions: isogenic strains
Description: (§2) A critical consideration in the development of an effective antifungal is not just target binding, but also access to the target across microbial cell membranes and cell walls. Therefore, we evaluated the potency and selectivity of oxime analogs using drug susceptibility assays. We used strains of S. cerevisiae where both endogenous genes encoding isoforms of Hsp90 have been disrupted and growth is solely dependent upon C. albicans or human Hsp90 isoforms.
as §1

[5] = test system: C. albicans SN95; assay: Growth inhibition in culture; format: cell-based, Candida albicans; conditions: 48-hour exposure
Description: (§3) We began by measuring inhibition of C. albicans growth in culture.
(§4) Each colored box represents the mean of duplicate determinations. Color scale for relative growth is provided to far right of panel, green: no inhibition to black: complete inhibition. […] Cultures were then fixed and stained by Periodic Acid-Schiff (PAS) technique to visualize fungal burden (dark red/purple signal) and underlying human cells (light pink signal). Representative fields from conventional light photomicrographs are presented at the same magnification in all panels. The experiment was repeated in two independent biological replicates to confirm results. Scale bar, 100 μm
as §1

[6] = test system: C. albicans clinical isolate CaCi-2; assay: Growth inhibition in culture; format: cell-based, Candida albicans; conditions: 48-hour exposure
Description: as §3, §4, §1

[7] = test system: S. cerevisiae expressing C. albicans Hsp90; assay: Broth microdilution growth inhibition (MIC), yeast with C. albicans Hsp90 as sole Hsp90; format: cell-based, Saccharomyces cerevisiae; conditions: twofold dilution series, heat map
Description: as §2, §1

With `C[C@@H]1C[C@H]2O[C@@H]2/C=C\C=C\C(=O)Cc2c(Cl)c(O)cc(O)c2C(=O)O1` [radicicol, reference compound] the “effect on engulfment of C. albicans” value [1] was “Neither compound impaired engulfment”, the “Bliss synergy δ with fluconazole” value [2] was 22.6 and the heat-shock reporter activation [3] was “concentration-dependent reporter activation”. The “activity compared with strain expressing C. albicans Hsp90” value [4] was “converse”, the single-agent growth inhibition [5] was “comparable single-agent activity” and the single-agent growth inhibition [6] was “comparable single-agent activity”. The growth inhibition [7] was “significantly inhibit growth”.
